{"source": "patent US8211469B2", "about": "“Use of block copolymers based on vinyllactams and vinyl acetate as solubilizers” (priority 2006, dated 2012)", "origin": "cited, not measured here", "settings": "20° C.", "data": [{"smiles": "Fc1ccc([C@]2(Cn3cncn3)O[C@H]2c2ccccc2Cl)cc1", "note": "(racemic) [Epoxyconazole]", "values": [{"measurement": "Solubility in water", "result": "6.63*10^−4 g/100 ml"}]}]}
